Read-outs that look alike come from different tables or passages of the source. Values belong to the compound of their own block, whether it stands above or below them.
What was measured:
[1] = target: T1, OCT-1 (Homo sapiens, UniProt O15245); assay: OCT-1 activity; format: cell-based; conditions: KU812
T1 sequence (O15245 1-554): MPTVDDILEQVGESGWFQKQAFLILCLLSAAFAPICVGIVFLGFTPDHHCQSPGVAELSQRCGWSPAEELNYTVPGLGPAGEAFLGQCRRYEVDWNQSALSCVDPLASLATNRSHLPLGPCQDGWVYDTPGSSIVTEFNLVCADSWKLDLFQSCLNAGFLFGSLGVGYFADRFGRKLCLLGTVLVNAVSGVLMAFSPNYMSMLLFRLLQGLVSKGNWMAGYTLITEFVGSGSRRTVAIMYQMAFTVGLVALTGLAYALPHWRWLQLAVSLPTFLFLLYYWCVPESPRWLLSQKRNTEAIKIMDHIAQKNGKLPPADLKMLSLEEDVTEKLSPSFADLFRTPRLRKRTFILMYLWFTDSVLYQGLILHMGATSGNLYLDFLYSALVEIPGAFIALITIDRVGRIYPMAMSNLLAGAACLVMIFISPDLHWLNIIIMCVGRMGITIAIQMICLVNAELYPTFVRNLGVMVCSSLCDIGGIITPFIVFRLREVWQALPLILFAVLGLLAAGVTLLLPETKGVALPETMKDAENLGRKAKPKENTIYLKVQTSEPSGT

[2] = target: T1, OCT-1; assay: OCT-1 activity; format: cell-based; conditions: K562; for change in OA / imatinib uptake via OCT-1: NSAID at concentration of Supplementary Table 1, 2 h
[3] = tested on: OCT-1 mRNA; assay: RQ-PCR for OCT-1 mRNA levels, K562; format: cell-based, human; conditions: 2-hour incubation (data not shown)
[4] = tested on: K562 cells; assay: Trypan blue exclusion assay, viable cell number, K562; format: cell-based, human; conditions: for number of viable cells: 72 hours
[5] = tested on: OCT-1 mRNA; assay: RQ-PCR for OCT-1 mRNA levels, KU812; format: cell-based, human; conditions: 2-hour incubation (data not shown)
[6] = tested on: hOCT-1; conditions: 0.5 mM NSAID; transfected S2 cells expressing hOCT-1; ref Khamdang et al, 2002; cited from earlier work
[7] = ref Siu et al, 2000; Juhlin et al, 2004; Bramlage and Goldis, 2008; cited from earlier work
[8] = target: T1, OCT-1; assay: OCT-1 activity; format: cell-based
[9] = target: T1, OCT-1; assay: OCT-1 activity; format: cell-based; conditions: MNCs from normal individuals
[10] = tested on: KU812 cells; assay: Trypan blue exclusion assay, viable cell number, KU812; format: cell-based, human; conditions: for number of viable cells: 72 hours
[11] = tested on: chronic myeloid leukaemia; conditions: imatinib 600 mg per day, ref White et al, 2007b, cited from earlier work
[12] = tested on: chronic myeloid leukaemia; conditions: 7-year update of IRIS; ref Hughes et al, 2010; cited from earlier work

SMILES: Cc1ccc(-c2cc(C(F)(F)F)nn2-c2ccc(S(N)(=O)=O)cc2)cc1 [celecoxib]
change in imatinib uptake via OCT-1 [1]: no significant impact
change in OA / imatinib uptake via OCT-1 [2]: no significant impact

SMILES: CC(C)Cc1ccc(C(C)C(=O)O)cc1 (centres unmarked) [ibuprofen]
change in level of OCT-1 mRNA [3]: no significant change
number of viable cells ([4]; 145 μM ibuprofen + 0.5 μM imatinib): 8.16±1.01 × 10^5 ml^−1
change in level of OCT-1 mRNA [5]: no significant change
effect on OCT-1-mediated TEA uptake [6]: significantly inhibit
OA, % of vehicle control ([1]; 145 μM ibuprofen, 2 h): 59%
OA, % of vehicle control ([2]; 145 μM ibuprofen, 2 h): 48%
reduction in OA ([8]; CP-CML MNCs, 12 cases, 145 μM ibuprofen): 41%
range of OA after treatment ([8]; CP-CML MNCs, n=12, 145 μM ibuprofen): 1.53–7.85 ng per 200 000 cells
average OA after treatment ([8]; CP-CML MNCs, n=12, 145 μM ibuprofen, 7.53±0.82 before): 4.30±0.52 ng per 200 000 cells
decrease in OA ([9]; n=6, ibuprofen): 50%
range of OA post treatment ([9]; n=6, ibuprofen): 1.41–2.82 ng per 200 000 cells
OA post treatment ([9]; n=6, ibuprofen, 3.70±0.45 before): 1.83±0.26 ng per 200 000 cells
number of viable cells ([10]; 145 μM ibuprofen + 0.1 μM imatinib): 7.23±0.78 × 10^5 ml^−1

SMILES: Cc1ccc(NC(=O)c2ccc(CN3CCN(C)CC3)cc2)cc1Nc1nccc(-c2cccnc2)n1 [imatinib]
percentage of patients achieving major molecular response (MMR) by 24 months ([11]; patients with high OA): 85%
percentage of patients achieving major molecular response (MMR) by 24 months ([11]; patients with low OA): 45%
number of viable cells ([4]; 0.5 μM imatinib alone): 4.88±0.96 × 10^5 ml^−1
overall event-free survival [12]: 81%
transformation-free survival (to accelerated phase/blast crisis) [12]: 93%
number of viable cells ([10]; 0.05 μM imatinib alone): 8.40±0.74 × 10^5 ml^−1
number of viable cells ([10]; 0.1 μM imatinib alone): 4.97±0.47 × 10^5 ml^−1

SMILES: COc1ccc2c(c1)c(CC(=O)O)c(C)n2C(=O)c1ccc(Cl)cc1 [indomethacin]
effect on OCT-1-mediated TEA uptake [6]: significantly inhibit

SMILES: CC1=C(CC(=O)O)c2cc(F)ccc2/C1=C\c1ccc([S+](C)[O-])cc1 (centres unmarked) [sulindac]
effect on OCT-1-mediated TEA uptake [6]: significantly inhibit

Continued, in another order:

cases moved from Q1 to a higher OA quartile group ([8]; 15 of 29 Q1 cases, 10 μM diclofenac): 51.7%
percentage of Q1 patients' samples in which OA was increased ([8]; CML MNCs with basal OA <4 ng per 200 000 cells (Q1), n=29, 10 μM diclofenac): 93%
median OA in the presence of diclofenac ([8]; patients with basal OA >4 ng per 200 000 cells, n=21, 10 μM diclofenac, 5.49 without, not significant (P=0.714)): 5.92 ng per 200 000cells
change in OA ([9]; n=10, diclofenac (data not shown)): did not result in a significant change
SMILES: O=C(O)Cc1ccccc1Nc1c(Cl)cccc1Cl [diclofenac]
change in level of OCT-1 mRNA [3]: no significant change
number of viable cells ([4]; 10 μM diclofenac + […] imatinib): 7.82±0.56 × 10^5 ml^−1
change in cell viability ([4]; diclofenac alone, no imatinib): no significant change
change in level of OCT-1 mRNA [5]: no significant change
effect on OCT-1-mediated TEA uptake [6]: significantly inhibit
clinically achievable total plasma concentration [7]: 10 µM
number of viable cells ([10]; 10 μM diclofenac + 0.05 μM imatinib): 5.40±0.34 × 10^5 ml^−1
change in cell viability ([10]; diclofenac alone, no imatinib): no significant change

change in imatinib uptake via OCT-1 [1]: no significant impact
change in OA / imatinib uptake via OCT-1 [2]: no significant impact
SMILES: CS(=O)(=O)c1ccc(C2=C(c3ccccc3)C(=O)OC2)cc1 [rofecoxib]
